Data on 18 molecules can be found in patent publication US20260008758A1, “LINEAR DIPEPTIDYL PEPTIDASE 1 INHIBITORS AND USES THEREOF” (Insmed Incorporated, priority 2024, published 2026).

Assay [1] addresses DPP1 in HL-60 cells (Homo sapiens (Human), UniProt P53634). Put plainly: DPP1 cell single-point percent inhibition testing (HL-60 cells, H-Gly-Phe-AFC substrate). In kind it is cell-based. The settings on record: read-out: DPP1 cell % inhibition @ 5 nM, 5 nM compound, 100 μM H-Gly-Phe-AFC, 60 min pre-incubation at 37° C. Here is the method:
HL-60 cells (ATCC; Manassas, VA) were maintained in RPMI-1640 supplemented with 20% heat-inactivated FBS and 1× Antibiotic Antimycotic (Cytiva; Marlborough, MA). Media was changed every three to four days and cells were not allowed to exceed 1×10^6 cells per mL. Prior to assay, cells were collected by centrifugation at 500 rcf for 3 minutes, resuspended in RPMI (with no additional supplements) and counted. Cells were diluted in RPMI to a concentration of 5×10^5 live cells per mL and transferred to black 96-well plates for assay, 60 μL per well. Test articles were diluted to 25 nM in RPMI plus 0.5% DMSO, and 20 μL was added to each assay well. Compound was allowed to pre-incubate with cells with gentle shaking at 100 rpm for 60 minutes at 37° C. in a cell culture incubator maintained at 5% CO2, after which 20 μL of 500 μM H-Gly-Phe-AFC cell-permeable substrate (MP Biomedicals; Solon, OH) in RPMI was added to each well, giving final compound concentration of 5 nM, a final substrate concentration of 100 μM and a final DMSO concentration of 0.1%. Plates were returned to the incubator with shaking at 100 rpm for 30 minutes, after which fluorescence was measured at Excitation/Emission 400/505 nm. Percent Inhibition was calculated from RFU values by first subtracting background values (wells in which RPMI was substituted for cells) from each well, and then subtracting background-subtracted RFU derived from wells that received a final concentration of 10 μM brensocatib. This value represents the non-specific substrate cleavage from the HL-60 cells, and the remaining RFU should theoretically be solely the contribution of DPP1 enzyme activity. The final percent inhibition value was calculated for each test article based on remaining RFU compared to RFU from wells that received only vehicle control.

The target of assay [2] is human DPP1 enzyme (Homo sapiens (Human), UniProt P53634). Briefly: Human DPP1 enzyme single-point percent inhibition testing (HL-60 lysate, H-Gly-Arg-AMC substrate). In kind it is biochemical. The settings on record: read-out: human DPP1 enzyme % inhibition @ 10 nM, 10 nM compound, 400 μM H-Gly-Arg-AMC, 10 min pre-incubation at 37° C. Here is the method:
A crude lysate of HL-60 cells (ATCC; Manassas, VA) was used as a source of human DPP1 enzyme in the assay. Lysate was prepared in 1% Triton X-100 in PBS at a concentration of 20,000 live cells per […] of lysis buffer and was centrifuged at 16,000 rcf for 10 minutes at 4° C., after which supernatant was collected and flash-frozen in liquid nitrogen. Test articles were applied to human DPP1 enzyme in Assay Buffer (25 mM MES pH 6.0, 50 mM NaCl, 5 mM DTT) in a total reaction volume of 125 μL. 25 μL of compound diluted to 50 nM in Assay Buffer plus 5% DMSO was first added to 50 μL of HL-60 lysate diluted to contain a DPP1 enzyme concentration of roughly 1 ng/μL and allowed to pre-incubate for 10 minutes at 37° C. after which 50 μL of 1000 μM H-Gly-Arg-AMC substrate (Bachem; St. Torrance, CA) was added, giving final compound concentration of 10 nM, a final substrate concentration of 400 μM and a final DMSO concentration of 1%. Substrate cleavage was measured for 90 minutes at 37° C., with fluorescence at Excitation/Emission 350/450 nm measured every 5 minutes. DPP1 concentration was interpolated based on its activity relative to a standard curve of activated human recombinant DPP1 enzyme. Percent inhibition at 10 nM was calculated for each test article based on remaining DPP1 activity compared to enzyme activity in wells that received only vehicle control.

Sequence of human DPP1 enzyme (P53634 25-134): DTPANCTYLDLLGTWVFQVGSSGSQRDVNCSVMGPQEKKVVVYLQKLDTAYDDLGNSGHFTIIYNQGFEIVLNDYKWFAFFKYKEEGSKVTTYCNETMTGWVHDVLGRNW
Sequence of human DPP1 enzyme (P53634 231-394): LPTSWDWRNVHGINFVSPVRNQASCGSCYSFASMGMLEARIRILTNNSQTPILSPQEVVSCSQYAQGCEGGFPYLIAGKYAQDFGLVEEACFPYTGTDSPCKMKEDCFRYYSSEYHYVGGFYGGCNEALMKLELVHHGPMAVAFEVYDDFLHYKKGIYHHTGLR
Sequence of human DPP1 enzyme (P53634 395-463): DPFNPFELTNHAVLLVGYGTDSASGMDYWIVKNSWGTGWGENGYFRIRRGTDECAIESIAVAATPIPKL
Sequence of DPP1 in HL-60 cells (P53634 25-134): as the sequence (P53634 25-134) above
Sequence of DPP1 in HL-60 cells (P53634 231-394): as the sequence (P53634 231-394) above
Sequence of DPP1 in HL-60 cells (P53634 395-463): as the sequence (P53634 395-463) above

Consider `CN(C)C[C@H](O)C(=O)N[C@H](C#N)Cc1ccc(-c2ccc(S(=O)(=O)N3CCC3)cc2)cc1F` [Compound 377], for which the inhibition at 0.005 µM in assay [1] was not above 76.5%. The inhibition at 0.01 µM in assay [2] was not above 40%.
Take `CN(C)C[C@H](O)C(=O)N[C@H](C#N)Cc1cc2c(cc1F)-c1ccc(F)cc1CO2` [Compound 378]: in assay [1], the inhibition at 0.005 µM was not above 76.5%. Moreover, the inhibition at 0.01 µM in assay [2] was not above 40%.
Regarding `CN(C)C[C@](C)(O)C(=O)NC(C#N)Cc1cc2c(cc1F)-c1cc(C3COC3)c(F)cc1CO2` (stereo partly drawn) [Compound 379], the inhibition at 0.005 µM in assay [1] is not above 76.5%. For the same molecule, the inhibition at 0.01 µM in assay [2] was not above 40%.
In the case of `CN(C)C[C@](C)(O)C(=O)N[C@H](C#N)Cc1cc2c(cc1F)-c1ccc(C#N)cc1CO2` [Compound 380], the inhibition at 0.005 µM in assay [1] was not above 76.5%. Further, the inhibition at 0.01 µM in assay [2] was not above 40%.
With `CN(C)C[C@](C)(O)C(=O)NC(C#N)Cc1cc2c(cc1F)-c1cc3c(cc1CO2)oc(=O)n3C` (stereo partly drawn) [Compound 381], in assay [1], the inhibition at 0.005 µM lay within 76.5 to 93.9%. Also, in assay [2], the inhibition at 0.01 µM was 40 to 66.7%.
Turning to `CN(C)C[C@](C)(O)C(=O)NC(C#N)Cc1cc2c(cc1F)-c1cc(C#N)ccc1CO2` (stereo partly drawn) [Compound 382], in assay [1], the inhibition at 0.005 µM was not above 76.5%. In assay [2], the inhibition at 0.01 µM was not above 40%.
Turning to `CN(C)C[C@](C)(O)C(=O)NC(C#N)Cc1cc2c(cc1F)-c1ccc3oc(=O)n(C)c3c1CO2` (stereo partly drawn) [Compound 383], in assay [1], the inhibition at 0.005 µM is not above 76.5%. Further, in assay [2], the inhibition at 0.01 µM is not above 40%.
For `CN(C)C[C@](C)(O)C(=O)N[C@H](C#N)Cc1ccc(-c2ccc3c(c2)C2(CC3)CCN(C)CC2)cc1` [Compound 384], in that order: not above 76.5% and not below 66.7%.
On to `CN(C)C[C@](C)(O)C(=O)N[C@H](C#N)Cc1ccc(-c2ccc3c(c2)C2(CCCN(C)C2)C(=O)N3C)cc1` (stereo partly drawn) [Compound 385], for which the inhibition at 0.005 µM in assay [1] is not below 93.9%. Further, the inhibition at 0.01 µM in assay [2] is not below 66.7%.
`CN(C)CCn1c(=O)oc2ccc(-c3ccc(C[C@@H](C#N)NC(=O)[C@@](C)(O)CN(C)C)cc3)cc21` [Compound 386]: the inhibition at 0.005 µM in assay [1] lay in the range of 76.5 to 93.9%. Also, the inhibition at 0.01 µM in assay [2] is not below 66.7%.
The matching figures for `CN(C)C[C@](C)(O)C(=O)N[C@H](C#N)Cc1ccc(-c2ccc3c(c2)C2(CN(C)C2)OC3=O)cc1` [Compound 388]: not below 93.9% and not below 66.7%.
For `CCN1C(=O)Cc2ccc(-c3ccc(C[C@@H](C#N)NC(=O)[C@@](C)(O)CN(C)C)cc3)cc21` [Compound 389], in that order: 76.5 to 93.9% and 40 to 66.7%.
`CN(C)C[C@](C)(O)C(=O)N[C@H](C#N)Cc1ccc(-c2ccc3c(c2)C2(CCN(C)C2)OC3=O)cc1` (stereo partly drawn) [Compound 390]: in assay [1], the inhibition at 0.005 µM was not above 76.5%. Further, the inhibition at 0.01 µM in assay [2] is not below 66.7%.
Regarding `CN(C)C[C@](C)(O)C(=O)N[C@H](C#N)Cc1ccc(-c2ccc3cnn(C4CCN(C)CC4)c3c2)cc1` [Compound 391], in assay [1], the inhibition at 0.005 µM is not above 76.5%. Also, in assay [2], the inhibition at 0.01 µM is not below 66.7%.
For `CN(C)C[C@](C)(O)C(=O)N[C@H](C#N)Cc1ccc(-c2ccc3c(c2)C2(CCN(C4COC4)CC2)OC3)cc1` [Compound 392], in that order: not above 76.5% and not below 66.7%.
With `CN(C)C[C@](C)(O)C(=O)N[C@H](C#N)Cc1ccc(-c2ccc3oc(=O)n(CCN4CCOCC4)c3c2)cc1` [Compound 393], in assay [1], the inhibition at 0.005 µM was not above 76.5%. For the same molecule, in assay [2], the inhibition at 0.01 µM was in the range of 40 to 66.7%.
As to `CN(C)C[C@](C)(O)C(=O)N[C@H](C#N)Cc1ccc(-c2ccc(CN3CCN(C)CC3)cc2)cc1` [Compound 394], the inhibition at 0.005 µM in assay [1] is 76.5 to 93.9%. The inhibition at 0.01 µM in assay [2] is not above 40%.
Turning to `CN(C)C[C@](C)(O)C(=O)N[C@H](C#N)Cc1ccc(-c2ccc3oc(=O)n(C)c3c2)cc1` [Compound 395], in assay [1], the inhibition at 0.005 µM lay in the range of 76.5 to 93.9%. The inhibition at 0.01 µM in assay [2] was not below 66.7%.

By inhibition is commonly meant the percentage by which the read-out fell short of the control.
